From EP0014223A1, “Quaternary aminoacetic anilides, herbicidal compositions containing them and method for influencing plant growth” (CIBA-GEIGY AG, priority 1979, dated 1980)
Where two headings read alike, the source gives them in different places.

What was measured:
[1] = tested on: Chrysanthemum variety "Golden Anne"; test: Biological tests on chrysanthemums, height reduction and delay in flowering; format: in vivo; details: foliar spray
Experimental: (§1) In these tests chrysanthemum varieties were used which, on account of their strong growth, can only be reared as pot plants in combination with growth inhibitors.
(§2) About 25 days after potting (14 days after pinching) the plants were sprayed with aqueous preparations of the active substance of the Example and with Alar (known inhibitior for comparison). The growth in height of the plants was measured after three different periods (see table) and the growth inhibition is expressed in percent of the height measured on untreated plants (check = 0% reduction).
(§3) The delay in flowering was evaluated as follows: • ^* = 3-4 days delay DAA = Days after application • ^** = 4-7 days delay

[2] = tested on: Chrysanthemum variety "Regal Anne"; test: as above; format: in vivo
Experimental: as §1, §2, §3

[3] = tested on: Chrysanthemum variety "Wedgewood"; test: as above; format: in vivo; details: foliar spray
Experimental: as §1, §2, §3

[4] = tested on: Chrysanthemum variety "Aglow"; test: as above; format: in vivo; details: foliar spray
Experimental: as §1, §2, §3

[5] = tested on: Soya plants of the variety "Hark"; test: Inhibition of the vegetative growth and yield increase of soya plants; format: in vivo; details: for Inhibition rating: 5-trifoliate leaf stage, 4 weeks after application, linear rating 1-9; for % increase of pods A (number of pods) / % increase of pods B (weight of pods): versus untreated control plants
Experimental: Soya plants of the variety "Hark" were reared in earthenware pots and sprayed at the 5-trifoliate leaf stage with aqueous preparations of the active substance of the Example. The active substance concentrations in the spray broth were 500, 100 and 50 ppm respectively. The plant growth was evaluated 4 weeks after application in accordance with the following linear rating: • 1 = strong inhibition (no growth from the time of application) • 9 = no inhibition (growth as untreated controls)
The yield increase was evaluated at the sime time in percent increase of the pods when compared with the yield of pods obtained with untreated control plants.
Value A expresses the % increase in number of pods Value B express the % increase in weight of pods.

chrysanthemums = test: Trials under practical conditions on chrysanthemums; format: in vivo; details: independent of environmental conditions
Text: This inhibition is independent of environmental conditions (e.g. it is not light-dependent). Depending on the applied rate, any desired degree of growth inhibition can be obtained.

[6] = Stability against hydrolysis; format: physicochemical; details: all pH-ranges from 3 to 10
Experimental: (§4) 14,3 g (0,06 mole) of pyrrolidinoacetic acid 3-chloro-anilide are dissolved in 50 ml of ethyl acetate and then 9,4 g (0,078 mole) of allyl bromide are added. The reaction mixture is refluxed for 3 hours and the quaternised end product initially separates out as an oil which chrystallises after a brief time.After filtration with suction, washing with ethyl acetate and drying in vacuo at 50°C, 21,5 g (99,5% of theory) of the quaternary allyl pyrrolidino bromide of the formula [drawing 3] are obtained. Meting point: 144-147°C. The product is colourless, soluble in water (3,7%) and methanol (30%) and stable against hydrolysis in all pH-ranges from 3 to 10.

chrysanthemum varieties = test: Biological tests on chrysanthemums, summary over all varieties; format: in vivo; details: depending on the variety; in sufficient water to wet all the foliage
Experimental: as §1, §2
Depending on the variety the optimal growth inhibition (20 to 35%) was obtained with rates between 125-250 ppm of the active ingredient of the Example in sufficient water to wet all the foliage. With one variety a soil drench application was also performed.

[7] = tested on: Chrysanthemum variety "Regal Anne"; test: Biological tests on chrysanthemums, height reduction and delay in flowering; format: in vivo; details: Soil drench, 250 ppm
[8] = Solubility of the product; format: physicochemical
Experimental: as §4

CN(C)NC(=O)CCC(=O)O [A, succinic acid mono-N-dimethylhydrazide, reference compound]
delay in flowering ([1]; 3400 ppm): * (^* = 3-4 days delay)
height reduction against check ([1]; 3400 ppm, 14 DAA): 30%
height reduction against check ([1]; 3400 ppm, 32 DAA): 30%
height reduction against check ([1]; 3400 ppm, 39 DAA): 25%
delay in flowering ([2]; foliar spray, 3400 ppm): * (^* = 3-4 days delay)
height reduction against check ([2]; foliar spray, 3400 ppm, 11 DAA): 40%
height reduction against check ([2]; foliar spray, 3400 ppm, 30 DAA): 40%
height reduction against check ([2]; foliar spray, 3400 ppm, 55 DAA): 25%
delay in flowering ([3]; 3400 ppm): * (^* = 3-4 days delay)
height reduction against check ([3]; 3400 ppm, 14 DAA): 30%
height reduction against check ([3]; 3400 ppm, 32 DAA): 30%
height reduction against check ([3]; 3400 ppm, 39 DAA): 25%
delay in flowering ([4]; 3400 ppm): * (^* = 3-4 days delay)
height reduction against check ([4]; 3400 ppm, 14 DAA): 20%
height reduction against check ([4]; 3400 ppm, 32 DAA): 30%
height reduction against check ([4]; 3400 ppm, 39 DAA): 25%

C=CC[N+]1(CC(=O)Nc2cccc(Cl)c2)CCCC1 [B]
Inhibition rating ([5]; 50 ppm spray): 6
% increase of pods A (number of pods) ([5]; 50ppm): 45%
% increase of pods B (weight of pods) ([5]; 50ppm): 43%
Inhibition rating ([5]; 100 ppm spray): 7
% increase of pods A (number of pods) ([5]; 100 ppm): 22%
% increase of pods B (weight of pods) ([5]; 100 ppm): 11%
Inhibition rating ([5]; 500 ppm spray): 6
% increase of pods A (number of pods) ([5]; 500 ppm): 2%
% increase of pods B (weight of pods) ([5]; 500 ppm): 0%
inhibition of internode growth (chrysanthemums): uniform and reproducible inhibition of internode growth
stable against hydrolysis [6]: stable
rates giving the optimal growth inhibition (20 to 35%) (chrysanthemum varieties): 125-250 ppm
delay in flowering [7]: ** (^** = 4-7 days delay)
height reduction against check ([7]; 11 DAA): 25%
delay in flowering ([1]; 125 ppm): * (^* = 3-4 days delay)
height reduction against check ([1]; 125 ppm, 14 DAA): 10%
height reduction against check ([1]; 125 ppm, 32 DAA): 30%
height reduction against check ([1]; 125 ppm, 39 DAA): 20%
delay in flowering ([1]; 250 ppm): ** (^** = 4-7 days delay)
height reduction against check ([1]; 250 ppm, 14 DAA): 20%
height reduction against check ([1]; 250 ppm, 32 DAA): 35%
height reduction against check ([1]; 250 ppm, 39 DAA): 30%
delay in flowering ([1]; 500 ppm): ** (^** = 4-7 days delay)
height reduction against check ([1]; 500 ppm, 14 DAA): 30%
height reduction against check ([1]; 500 ppm, 32 DAA): 40%
height reduction against check ([1]; 500 ppm, 39 DAA): 35%
height reduction against check ([2]; Soil drench, 250 ppm, 30 DAA): 50%
height reduction against check ([2]; Soil drench, 250 ppm, 55 DAA): 50%
delay in flowering ([2]; foliar spray, 125 ppm): * (^* = 3-4 days delay)
height reduction against check ([2]; foliar spray, 125 ppm, 11 DAA): 10%
height reduction against check ([2]; foliar spray, 125 ppm, 30 DAA): 25%
height reduction against check ([2]; foliar spray, 125 ppm, 55 DAA): 25%
delay in flowering ([2]; foliar spray, 250 ppm): * (^* = 3-4 days delay)
height reduction against check ([2]; foliar spray, 250 ppm, 11 DAA): 25%
height reduction against check ([2]; foliar spray, 250 ppm, 30 DAA): 50%
height reduction against check ([2]; foliar spray, 250 ppm, 55 DAA): 25%
delay in flowering ([2]; foliar spray, 500 ppm): * (^* = 3-4 days delay)
height reduction against check ([2]; foliar spray, 500 ppm, 11 DAA): 25%
height reduction against check ([2]; foliar spray, 500 ppm, 30 DAA): 60%
height reduction against check ([2]; foliar spray, 500 ppm, 55 DAA): 40%
delay in flowering ([2]; foliar spray, 1000 ppm): * (^* = 3-4 days delay)
height reduction against check ([2]; foliar spray, 1000 ppm, 11 DAA): 25%
height reduction against check ([2]; foliar spray, 1000 ppm, 30 DAA): 60%
height reduction against check ([2]; foliar spray, 1000 ppm, 55 DAA): 40%
delay in flowering ([2]; foliar spray, 2000 ppm): ** (^** = 4-7 days delay)
height reduction against check ([2]; foliar spray, 2000 ppm, 11 DAA): 40%
height reduction against check ([2]; foliar spray, 2000 ppm, 30 DAA): 75%
height reduction against check ([2]; foliar spray, 2000 ppm, 55 DAA): 50%
delay in flowering ([3]; 125 ppm): * (^* = 3-4 days delay)
height reduction against check ([3]; 125 ppm, 14 DAA): 10%
height reduction against check ([3]; 125 ppm, 32 DAA): 10%
height reduction against check ([3]; 125 ppm, 39 DAA): 20%
delay in flowering ([3]; 250 ppm): * (^* = 3-4 days delay)
height reduction against check ([3]; 250 ppm, 14 DAA): 15%
height reduction against check ([3]; 250 ppm, 32 DAA): 15%
height reduction against check ([3]; 250 ppm, 39 DAA): 25%
delay in flowering ([3]; 500 ppm): * (^* = 3-4 days delay)
height reduction against check ([3]; 500 ppm, 14 DAA): 15%
height reduction against check ([3]; 500 ppm, 32 DAA): 25%
height reduction against check ([3]; 500 ppm, 39 DAA): 25%
delay in flowering ([4]; 125 ppm): * (^* = 3-4 days delay)
height reduction against check ([4]; 125 ppm, 14 DAA): 0%
height reduction against check ([4]; 125 ppm, 32 DAA): 0%
height reduction against check ([4]; 125 ppm, 39 DAA): 10%
delay in flowering ([4]; 250 ppm): * (^* = 3-4 days delay)
height reduction against check ([4]; 250 ppm, 14 DAA): 10%
height reduction against check ([4]; 250 ppm, 32 DAA): 10%
height reduction against check ([4]; 250 ppm, 39 DAA): 25%
height reduction against check ([4]; 500 ppm, 14 DAA): 15%
height reduction against check ([4]; 500 ppm, 32 DAA): 25%
height reduction against check ([4]; 500 ppm, 39 DAA): 30%
solubility ([8]; methanol, organic solvent or mixture, read-out: soluble in methanol): 300 mg/mL
solubility ([8]; water, read-out: soluble in water): 37 mg/mL
